Measurements as given in US9682995B2, “Amino-substituted isothiazoles” (BAYER PHARMA AKTIENGESELLSCHAFT, priority 2013, dated 2017).

Tests used:
human kinase Mps-1 = human kinase Mps-1 (Homo sapiens (Human), UniProt P33981); assay: Mps-1 kinase assay (TR-FRET); type: biochemical; settings: 10 μM ATP; read-out: Mps1 avg (IC50 [mol/l])
Experimental: The human kinase Mps-1 phosphorylates a biotinylated substrate peptide. Detection of the phosphorylated product is achieved by time-resolved fluorescence resonance energy transfer (TR-FRET) from Europium-labelled anti-phospho-Serine/Threonine antibody as donor to streptavidin labelled with cross-linked allophycocyanin (SA-XLent) as acceptor. Compounds are tested for their inhibition of the kinase activity.
N-terminally GST-tagged human full length recombinant Mps-1 kinase (purchased from Invitrogen, Karslruhe, Germany, cat. no PV4071) was used. As substrate for the kinase reaction a biotinylated peptide of the amino-acid sequence biotin-Ahx-PWDPDDADITEILG (C-terminus in amide form, purchased from Biosyntan GmbH, Berlin) was used.
For the assay 50 nl of a 100-fold concentrated solution of the test compound in DMSO was pipetted into a black low volume 384 well microtiter plate (Greiner Bio-One, Frickenhausen, Germany), 2 μl of a solution of Mps-1 in assay buffer [0.1 mM sodium-ortho-vanadate, 10 mM MgCl2, 2 mM DTT, 25 mM Hepes pH 7.7, 0.05% BSA (w/v), 0.001% Pluronic F-127] were added and the mixture was incubated for 15 min at 22° C. to allow pre-binding of the test compounds to Mps-1 before the start of the kinase reaction. Then the kinase reaction was started by the addition of 3 μl of a solution of 16.7 μM adenosine-tri-phosphate (ATP, 16.7 μM=>final conc. in the 5 μl assay volume is 10 μM) and peptide substrate (1.67 μM=>final conc. in the 5 μl assay volume is 1 μM) in assay buffer and the resulting mixture was incubated for a reaction time of 60 min at 22° C. The concentration of Mps-1 in the assay was adjusted to the activity of the enzyme lot and was chosen appropriate to have the assay in the linear range, typical enzyme concentrations were in the range of about 0.5 nM (final conc. in the 5 μl assay volume). The reaction was stopped by the addition of 5 μl of a solution of TR-FRET detection reagents (100 mM Hepes pH 7.4, 0.1% BSA, 40 mM EDTA, 140 nM Streptavidin-XLent [#61GSTXLB, Fa. Cis Biointernational, Marcoule, France], 1.5 nM anti-phospho(Ser/Thr)-Europium-antibody [#AD0180, PerkinElmer LAS, Rodgau-Jugesheim, Germany]. Instead of the 1.5 nM anti-phospho(Ser/Thr)-Europium-antibody a mixture of 2 nM unlabeled anti-phospho ser/thr-pro antibody MPM-2 [Millipore cat. #05-368] and 1 nM LANCE EU-W1024 labeled anti-mouse IgG antibody [Perkin-Elmer, product no. AD0077] can be used).
The resulting mixture was incubated 1 h at 22° C. to allow the binding of the phosphorylated peptide to the anti-phospho(Ser/Thr)-Europium-antibody. Subsequently the amount of phosphorylated substrate was evaluated by measurement of the resonance energy transfer from the Europium-labelled anti-phospho(Ser/Thr) antibody to the Streptavidin-XLent. Therefore, the fluorescence emissions at 620 nm and 665 nm after excitation at 350 nm was measured in a Viewlux TR-FRET reader (PerkinElmer LAS, Rodgau-Jugesheim, Germany). The “blank-corrected normalized ratio” (a Viewlux specific readout, similar to the traditional ratio of the emissions at 665 nm and at 622 nm, in which blank and Eu-donor crosstalk are subtracted from the 665 nm signal before the ratio is calculated) was taken as the measure for the amount of phosphorylated substrate. The data were normalised (enzyme reaction without inhibitor=0% inhibition, all other assay components but no enzyme=100% inhibition).

[1] = tested on: spindle assembly checkpoint; assay: SAC-Formation - Nocodazole-Induced Assay; type: cell-based; settings: Homo sapiens; HeLa cells, nocodazole 0.1 μg/ml, 24 h, phosphorylated histone H3 on serine 10
Source text: The spindle assembly checkpoint assures the proper segregation of chromosomes during mitosis. Upon entry into mitosis, chromosomes begin to condensate which is accompanied by the phosphorylation of histone H3 on serine 10. Dephosphorylation of histone H3 on serine 10 begins in anaphase and ends at early telophase. Accordingly, phosphorylation of histone H3 on serine 10 can be utilized as a marker of cells in mitosis. Nocodazole is a microtubule destabilizing substance. Paclitaxel is a microtubule stabilizing compound. Thus, nocodazole as well as paclitaxel interfere with microtubule dynamics and mobilize the spindle assembly checkpoint. […] The mitotic breakthrough can be detected by the decrease of cells with phosphorylation of histone H3 on serine 10. This decline is used as a marker to determine the capability of compounds of the present invention to induce a mitotic breakthrough. The typical morphological alteration of nuclei with a prematurely completed mitosis after SAC-inhibition can be monitored via image analysis routines supporting those findings.
The nocodazole and paclitaxel variations were used to focus on compounds that are capable of inhibiting a SAC induced by both microtubule destabilization as well as microtubule stabilization. When SAC inducing agents and compounds are given simultaneously, inhibitors that effectively block the SAC during formation or abrogation are identified. When cells are incubated with a SAC inducing agent and the SAC interfering compound is given after a defined time, inhibitors are identified that effectively block SAC abrogation.
Cultivated cells of the human cervical tumor cell line HeLa (ATCC CCL-2) were plated at a density of 1000 cells/well in a 1536-well microtiter plate in 2 μl PAA Ham's F12 Medium supplemented with 1% (v/v) glutamine, 1% (v/v) penicillin, 1% (v/v) streptomycin and 10% (v/v) fetal calf serum. After incubation overnight at 37° C., 10 μl/well nocodazole at a final concentration of 0.1 μg/ml were added to cells. Test compounds solubilized in dimethyl sulfoxide (DMSO) were added at various concentrations (0 μM, as well as in the range of 0.005 μM-20 μM; the final concentration of the solvent DMSO was 0.5% (v/v)). Cells were incubated for 24 h at 37° C. in the presence of test compounds in combination with nocodazole. Thereafter, cells were fixed in 4% (v/v) paraformaldehyde in phosphate buffered saline (PBS) at 4° C. overnight then permeabilized in 0.1% (v/v) Triton X™ 100 in PBS at room temperature for 20 min and blocked in 0.5% (v/v) bovine serum albumin (BSA) in PBS at room temperature for 15 min. After washing with PBS, 5 μl/well antibody solution (anti-phospho-histone H3 clone 3H10, FITC; Millipore, Cat #16-222; 1:1000 dilution) was added to cells, which were incubated for 2 h at room temperature. Afterwards, cells were washed with PBS and 5 μl/well solution of HOECHST 33342 dye (5 μg/ml) was added to cells and cells were incubated 15 min at room temperature in the dark. Cells were washed twice with PBS then covered with PBS and stored at 4° C. until analysis. Images were acquired with a PERKIN ELMER OPERA™ High-Content Analysis reader. Images were analyzed with image analysis software MetaXpress™ from Molecular devices utilizing the Mitotic Index application module. In this assay both labels HOECHST 33342 and phosphorylated Histone H3 on serine 10 were measured. HOECHST 33342 labels the DNA and is used to count the cell number. The staining of phosphorylated Histone H3 on serine 10 determines the number of mitotic cells. […] Otherwise cells were arrested at G2/M phase of the cell cycle progression. The raw assay data were further analyzed by four-parametric hill equation using Genedata's Assay Analyzer and Condoseo software.

human kinase Mps-1, sequence (P33981 whole entry): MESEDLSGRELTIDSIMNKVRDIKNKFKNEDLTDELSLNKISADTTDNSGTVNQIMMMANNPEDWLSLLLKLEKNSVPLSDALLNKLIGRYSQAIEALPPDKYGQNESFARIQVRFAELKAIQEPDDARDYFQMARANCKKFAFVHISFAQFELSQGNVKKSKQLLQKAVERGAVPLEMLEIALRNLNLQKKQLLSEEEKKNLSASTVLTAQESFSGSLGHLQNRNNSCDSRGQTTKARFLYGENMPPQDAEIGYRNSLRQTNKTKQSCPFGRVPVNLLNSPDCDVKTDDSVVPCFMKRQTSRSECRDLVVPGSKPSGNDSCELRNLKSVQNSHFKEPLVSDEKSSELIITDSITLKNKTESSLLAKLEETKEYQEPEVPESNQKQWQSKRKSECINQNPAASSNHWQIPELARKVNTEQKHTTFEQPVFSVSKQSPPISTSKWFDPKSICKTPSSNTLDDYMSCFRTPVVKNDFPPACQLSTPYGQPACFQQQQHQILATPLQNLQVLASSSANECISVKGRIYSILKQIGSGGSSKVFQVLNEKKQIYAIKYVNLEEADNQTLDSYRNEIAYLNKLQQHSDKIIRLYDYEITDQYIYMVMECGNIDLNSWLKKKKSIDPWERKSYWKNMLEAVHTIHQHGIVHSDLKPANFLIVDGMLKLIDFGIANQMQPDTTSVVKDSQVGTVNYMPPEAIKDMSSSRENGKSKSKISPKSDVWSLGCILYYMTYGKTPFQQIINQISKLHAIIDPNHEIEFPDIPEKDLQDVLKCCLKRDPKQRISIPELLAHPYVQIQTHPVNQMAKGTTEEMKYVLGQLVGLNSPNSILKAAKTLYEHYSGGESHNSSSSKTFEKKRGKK

| Compound | IC50 (human kinase Mps-1) [nM] | IC50 [1] [nM] |
| --- | --- | --- |
| CCc1ccccc1NC(=O)c1c(C)nsc1Nc1cnc2cc(F)ccc2n1 [Example 20, N-(2-Ethylphenyl)-5-[(6-fluoroquinoxalin-2-yl)amino]-3-methyl-1,2-thiazole-4-carboxamide] | > 20000 | 340 |
| CCc1ccccc1NC(=O)c1c(C)nsc1Nc1nccc(OC)n1 [Example 16, N-(2-Ethylphenyl)-5-[(4-methoxypyrimidin-2-yl)amino]-3-methyl-1,2-thiazole-4-carboxamide] | > 20000 | 9800 |
| Cc1nsc(Nc2cncc(C(=O)N(C)C)n2)c1C(=O)Nc1ccc(F)c(F)c1 [Example 104, 6-({4-[(3,4-Difluorophenyl)-carbamoyl]-3-methyl-1,2-thiazol-5-yl}amino)-N,N-dimethyl-pyrazine-2-carboxamide] | > 20000 | 530 |
| CCc1ccnc(Nc2snc(C)c2C(=O)Nc2ccccc2CC)n1 [Example 17, N-(2-Ethylphenyl)-5-[(4-ethylpyrimidin-2-yl)amino]-3-methyl-1,2-thiazole-4-carboxamide] | > 20000 | 6000 |
| Cc1nsc(Nc2cnc3ccccc3n2)c1C(=O)Nc1ccc(Oc2ccc(F)cc2F)nc1 [Example 113, N-[6-(2,4-Difluorophenoxy)pyridin-3-yl]-3-methyl-5-(quinoxalin-2-ylamino)-1,2-thiazole-4-carboxamide] | > 20000 | 470 |
| COc1ccc(NC(=O)c2c(C)nsc2Nc2nc3c(C(F)(F)F)cccc3s2)cn1 [Example 48, N-(6-Methoxypyridin-3-yl)-3-methyl-5-{[4-(trifluoromethyl)-1,3-benzothiazol-2-yl]-amino}-1,2-thiazole-4-carboxamide] | > 20000 | 130 |
| Cc1nsc(Nc2nc3c(C(F)(F)F)cccc3s2)c1C(=O)Nc1ccc(Cl)c(F)c1 [Example 53, N-(4-Chloro-3-fluorophenyl)-3-methyl-5-{[4-(trifluoromethyl)-1,3-benzothiazol-2-yl]amino}-1,2-thiazole-4-carboxamide] | > 20000 | 340 |
| CCc1ccccc1NC(=O)c1c(C)nsc1Nc1ccc(C#N)cn1 [Example 7, 5-[(5-Cyanopyridin-2-yl)amino]-N-(2-ethylphenyl)-3-methyl-1,2-thiazole-4-carboxamide] | > 20000 | 830 |
| COc1ccc(NC(=O)c2c(C)nsc2Nc2cnc3ccc(F)cc3n2)cn1 [Example 44, 5-[(7-Fluoroquinoxalin-2-yl)amino]-N-(6-methoxypyridin-3-yl)-3-methyl-1,2-thiazole-4-carboxamide] | > 20000 | 200 |
| Cc1nsc(Nc2cc(C#N)ccn2)c1C(=O)Nc1ccc(OC2CCCCC2)nc1 [Example 118, 5-[(4-Cyanopyridin-2-yl)amino]-N-[6-(cyclohexyloxy)pyridin-3-yl]-3-methyl-1,2-thiazole-4-carboxamide] | > 20000 | 60 |
| CCc1ccccc1NC(=O)c1c(C)nsc1Nc1ncnc2sccc12 [Example 12, N-(2-Ethylphenyl)-3-methyl-5-(thieno[2,3-d]pyrimidin-4-ylamino)-1,2-thiazole-4-carboxamide] | > 20000 | 2000 |
| CCOc1ccc(NC(=O)c2c(C)nsc2Nc2cnc3ccccc3n2)cn1 [Example 119, N-(6-Ethoxypyridin-3-yl)-3-methyl-5-(quinoxalin-2-ylamino)-1,2-thiazole-4-carboxamide] | > 20000 | 88 |
| CCOC(=O)c1coc(Nc2snc(C)c2C(=O)Nc2ccc(OC)nc2)n1 [Example 100, Ethyl 2-({4-[(6-methoxypyridin-3-yl)carbamoyl]-3 methyl-1,2-thiazol-5-yl}amino)-1,3-oxazole-4-carboxylate] | > 20000 | 5500 |
| Cc1nsc(Nc2cnccn2)c1C(=O)Nc1ccc(Cl)c(F)c1 [Example 56, N-(4-Chloro-3-fluorophenyl)-3-methyl-5-(pyrazin-2-ylamino)-1,2-thiazole-4-carboxamide] | > 20000 | 67 |
| CCc1ccccc1NC(=O)c1c(C)nsc1Nc1nc2ccccc2s1 [Example 14, 5-(1,3-Benzothiazol-2-ylamino)-N-(2-ethylphenyl)-3-methyl-1,2-thiazole-4-carboxamide] | > 20000 | 350 |
| CCc1ccccc1NC(=O)c1c(C)nsc1Nc1ncnc2ccsc12 [Example 13, N-(2-Ethylphenyl)-3-methyl-5-(thieno[3,2-d]pyrimidin-4-ylamino)-1,2-thiazole-4-carboxamide] | > 20000 | 590 |
| CCc1ccccc1NC(=O)c1c(C)nsc1Nc1nccnc1C#N [Example 34, 5-[(3-Cyanopyrazin-2-yl)amino]-N-(2-ethylphenyl)-3-methyl-1,2-thiazole-4-carboxamide] | > 20000 | 950 |
| COc1ncc(NC(=O)c2c(C)nsc2Nc2cnc3ccccc3n2)cc1C [Example 121, N-(6-Methoxy-5-methylpyridin-3-yl)-3-methyl-5-(quinoxalin-2-ylamino)-1,2-thiazole-4-carboxamide] | > 20000 | 130 |
| COC(=O)c1cnc(Nc2snc(C)c2C(=O)Nc2ccc(F)c(F)c2)o1 [Example 97, Methyl 2-({4-[(3,4-difluoro-phenyl)carbamoyl]-3-methyl-1,2-thiazol-5-yl}amino)-1,3-oxazole-5-carboxylate] | > 20000 | 5900 |
